Data from patent publication US20160213742A1, “COMPOSITIONS AND METHODS FOR THE TREATMENT OF FUNGAL INFECTIONS” (priority 2013, published 2016).
In brackets after ≈: the same amount, converted by molar mass. Entries after “also recorded” stand apart in the source; their conditions may differ.

Tests used:
Format in all cases: cell-based
human neutrophils = test: Microfluidic Neutrophil Chemotaxis assay; conditions: for neutrophil (NF) migration counts (FIG. 1): 4 hour timepoint, relative to A. fumigatus alone
Description: Two layers of photoresist (SU8; […] The wafer with patterned photoresist was used as a mold to produce polydimethylsiloxane (PDMS) (Fisher Scientific) devices, which were then bonded to the base of glass-bottom 12- or 24-well plates, using an oxygen plasma machine (Nordson-March). De-identified, fresh human blood samples from healthy volunteers, aged 18 years and older, who were not receiving immunosuppressants, were purchased from Research Blood Components, LLC. Peripheral blood was drawn in tubes containing a final concentration of 5 mM EDTA (Vacutainer; Becton Dickinson) and processed within 2 h of blood collection. Using a sterile technique, neutrophils were isolated from whole blood using HetaSep followed by the EasySep Human Neutrophil Enrichment Kit (STEMCELL Technologies) following the manufacturer's protocol. The purity of neutrophils was assessed to be >98% using the Sysmex KX-21N Hematology Analyzer (Sysmex America, Inc.). White blood cells were isolated using Hetasep followed by a 5 min spin down and wash with 1×PBS. White blood cells were stained with Hoechst (32.4 μM) (Sigma) following the manufacture's protocols. The final aliquots of white blood cells were resuspended in RPMI plus 10% fetal bovine serum (FBS−stock 50 mL FBS/450 mL RPMI) (Sigma-Aldrich) at a concentration of 20,000 cells/2 μL and kept at 37° C. Cells were then immediately introduced into the microfluidic device for the chemotaxis and Aspergillus fumigatus killing assay. All experiments were repeated at least three times with neutrophils or white blood cells from three different healthy donors. Immediately after bonding to the well plate, donut-shaped devices were filled with Aspergillus fumigatus conidia at a concentration of 10^6 cells/mL with or without either Compound 1 or Compound 11 [10 nM], caspofungin acetate [10 nM] and/or a solution of the chemoattractant N-formyl-methionyl-leucyl-phenylalanine (fMLP) [100 nM](Sigma-Aldrich, St. Louis, Mo.). The device was then placed in a vacuum for 15 min. The solution filled all of the FCCs as the air was displaced. The devices were then vigorously washed five times with 1×PBS to remove any residual Aspergillus fumigatus conidia, drug or chemoattractant that was outside of the FCCs. The device was then submerged in 0.5 mL of cell media. Neutrophils or white blood cells (20,000 cells/2 μL) were then pipetted into the cell loading chamber (CLC) using a gel-loading pipette tip. […] Image analysis of cell migration counts and fungi growth was analyzed by hand using Image J software. Neutrophil counts per chamber were counted every 15 min for the first 2 hours of the experiment and then every hour for the remaining 16 hours. Percentage of conidia that converted to hyphal growth was measured by counting conidia loaded per chamber before neutrophils or WBCs were loaded into the chamber and counting numbers of these conidia that grew hyphae by 18 hours. Fungal growth velocity was calculated using Image J. The 16 chambers in each device (n=3) were analyzed for at least three different healthy donors.

[1] = system: Aspergillus fumigatus strain AF293; test: Microfluidic Aspergillus fumigatus Killing Assay with human neutrophils
Description: Microfluidic devices used to measure leukocyte migration in response to Aspergillus fumigatus with or without drug (Compound 1 or Compound 11), antifungal control (caspofungin acetate) and/or chemoattractant (fMLP) were manufactured using known microfabrication techniques. Two layers of photoresist (SU8; Microchem), the first one 10 μm thin (corresponding to the migration channels) and the second one 70 μm thick, corresponding to the focal chemotactic chambers (FCCs) were patterned on one silicon wafer sequentially using two photolithographic masks and processing cycles according to the instructions from the manufacturer. The wafer with patterned photoresist was used as a mold to produce polydimethylsiloxane (PDMS) (Fisher Scientific) devices, which were then bonded to the base of glass-bottom 12- or 24-well plates, using an oxygen plasma machine (Nordson-March).
Aspergillus fumigatus strain AF293 expressing either cytosolic red fluorescent protein (RFP) or green fluorescent protein (GFP) was grown on Sabouraud dextrose agar plates supplemented with 100 μg/mL ampicillin at 30° C. for 3-4 days. Conidia were harvested by gentle scraping followed by washing in ice-cold phosphate buffered saline (PBS) three times. Conidia were immediately used or stored at 4° C. for use within one week.
De-identified, fresh human blood samples from healthy volunteers, aged 18 years and older, who were not receiving immunosuppressants, were purchased from Research Blood Components, LLC. Peripheral blood was drawn in tubes containing a final concentration of 5 mM EDTA (Vacutainer; Becton Dickinson) and processed within 2 h of blood collection. Using a sterile technique, neutrophils were isolated from whole blood using HetaSep followed by the EasySep Human Neutrophil Enrichment Kit ([…] Technologies) following the manufacturer's protocol. The purity of neutrophils was assessed to be >98% using the Sysmex KX-21N Hematology Analyzer (Sysmex America, Inc.). White blood cells were isolated using Hetasep followed by a 5 min spin down and wash with 1×PBS. White blood cells were stained with Hoechst (32.4 μM) (Sigma) following the manufacture's protocols. The final aliquots of white blood cells were resuspended in RPMI plus 10% fetal bovine serum (FBS−stock 50 mL FBS/450 mL RPMI) (Sigma-Aldrich) at a concentration of 20,000 cells/2 μL and kept at 37° C. Cells were then immediately introduced into the microfluidic device for the chemotaxis and Aspergillus fumigatus killing assay. All experiments were repeated at least three times with neutrophils or white blood cells from three different healthy donors.
Immediately after bonding to the well plate, donut-shaped devices were filled with Aspergillus fumigatus conidia at a concentration of 10^6 cells/mL with or without either Compound 1 or Compound 11 [10 nM], caspofungin acetate [10 nM] and/or a solution of the chemoattractant N-formyl-methionyl-leucyl-phenylalanine (fMLP) [100 nM](Sigma-Aldrich, St. Louis, Mo.). The device was then placed in a vacuum for 15 min. The solution filled all of the FCCs as the air was displaced. The devices were then vigorously washed five times with 1×PBS to remove any residual Aspergillus fumigatus conidia, drug or chemoattractant that was outside of the FCCs. The device was then submerged in 0.5 mL of cell media. Neutrophils or white blood cells (20,000 cells/2 μL) were then pipetted into the cell loading chamber (CLC) using a gel-loading pipette tip. Neutrophil migration into the migration channel toward the FCC started immediately and was recorded using time-lapse imaging on a fully automated Nikon TiE microscope (10× magnification) with biochamber heated to 37° C. with 5% carbon dioxide gas. Image analysis of cell migration counts and fungi growth was analyzed by hand using Image J software.
Image analysis of cell migration counts and fungi growth was analyzed by hand using Image J software.

C. glabrata ATCC 90030 = test: microbe, parasite or virus in culture; conditions: ATCC 90030, pH 7
In short: (§1)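 Aspergillus MEC and yeast MIC determined by 2-fold broth dilution in RPMI pH 7.0; plates incubated 35° C. until growth wells confluent (~24-48 hr), then read from below for growth inhibition or hyphal morphology change.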

[2] = system: C. parapsilosis ATCC 22019; test: microbe, parasite or virus in culture; conditions: ATCC 22019, pH 7
In short: as §1

C. albicans ATCC 90028 = test: microbe, parasite or virus in culture; conditions: ATCC 90028, pH 7
In short: as §1

C. krusei ATCC 14243 = test: microbe, parasite or virus in culture; conditions: ATCC 14243, pH 7
In short: as §1

A. flavus MX 5948 = test: MEC assay (Example 31); conditions: RPMI pH 7.0, 35° C., 24-48 hr
In short: as §1

A. fumigatus MYA-3626 = test: MEC assay (Example 31); conditions: RPMI pH 7.0, 35° C., 24-48 hr
In short: as §1

A. fumigatus MYA-4609 = test: MEC assay (Example 31); conditions: RPMI pH 7.0, 35° C., 24-48 hr
In short: as §1

A. fumigatus ATCC 13073 = test: MEC assay (Example 31); conditions: RPMI pH 7.0, 35° C., 24-48 hr
In short: as §1

A. fumigatus MX 5944 = test: MEC assay (Example 31); conditions: RPMI pH 7.0, 35° C., 24-48 hr
In short: as §1

[3] = system: Neutrophils purified from human peripheral blood; test: Human Neutrophil Transwell Migration Assay; conditions: 37° C., 45 minutes, % of the maximum migration possible
Description: Neutrophils were purified from human peripheral blood utilizing PolymorphPrep. Red blood cells were lysed with a lysis buffer and the cells were washed, counted and resuspended in assay buffer. Neutrophils (approximately 50,000 to 100,000 in number) were placed over 5-micon pore sized transwell plates in 24-well format with test compounds in the bottom chamber of each well. A negative control of media alone in the bottom chamber was set up in triplicate. A positive control where the neutrophils were added directly to the bottom well was set up in triplicate.
The plates were incubated at 37° C. for 45 minutes to allow for migration. After this time, migration was confirmed visually and then an aliquot (⅙^th of total cells) from each well was taken for ATP detection via luminescence with ATPlite (PerkinElmer) to quantify the number of migrated cells. The averaged reading for random migration detected in the negative control was subtracted from all readings to obtain the corrected migration number. These numbers were then divided by the averaged reading from the positive control to get the % Neutrophil Migration of the maximum migration possible.

MIC (C. glabrata ATCC 90030) | MIC [2] | MIC (C. albicans ATCC 90028) | MIC (C. krusei ATCC 14243) | SMILES | neutrophil (NF) migration counts (FIG. 1) (human neutrophils; 100 nM fMLP alone, no A. fumigatus) | neutrophil (NF) migration counts (FIG. 1) (human neutrophils; in the presence of Aspergillus fumigatus, Compound 1, Compound 11, caspofungin acetate 10 nM, fMLP 100 nM) | timecourse of neutrophil (PMNs) migration in FCCs (FIG. 4) (human neutrophils; with A. fumigatus, three healthy blood donors, t=0, 8, and 16 hours) | timecourse of A. fumigatus (Af) growth in FCCs (FIG. 4) ([1]; in presence of PMNs, three healthy blood donors, t=0, 8, and 16 hours) | percent hyphal growth compared to remaining conidia (FIG. 2) ([1]; with added neutrophils (NFs), Compound 1, Compound 11, caspofungin acetate 10 nM, fMLP 100 nM, hyphae by 18 hours) | MEC (A. flavus MX 5948) | MEC (A. fumigatus MYA-3626) | MEC (A. fumigatus MYA-4609) | MEC (A. fumigatus ATCC 13073) | MEC (A. fumigatus MX 5944) | % Neutrophil Migration ([3]; conc 0.001 μg/mL) | % Neutrophil Migration ([3]; conc 0.01 μg/mL) | % Neutrophil Migration ([3]; conc 0.1 μg/mL) | % Neutrophil Migration ([3]; conc 1 μg/mL) | % Neutrophil Migration ([3]; conc 10 μg/mL)
– | – | – | – | CSCC[C@H](NC=O)C(=O)N[C@@H](CC(C)C)C(=O)N[C@@H](Cc1ccccc1)C(=O)O [fMLP, N-formyl-methionyl-leucyl-phenylalanine, reference compound] | increased NF migration | increased NF migration | migration of PMNs | inhibition of growth of Af | inhibition of Aspergillus fumigatus hyphal growth; also recorded: able to suppress hyphal growth | – | – | – | – | – | – | – | – | – | –
2 µg/mL (≈ 1.22 µM) | 16 µg/mL (≈ 9.75 µM) | 1 µg/mL (≈ 0.609 µM) | 8 µg/mL (≈ 4.87 µM) | CC[C@H](C)C[C@H](C)CCCCCCCCC(=O)N[C@H]1C[C@@H](O)[C@@H](NCCN)NC(=O)[C@@H]2[C@@H](O)CCN2C(=O)[C@H]([C@H](O)CCNC(=O)[C@@H](N)CCCCNC(=O)[C@H](Cc2ccccc2)NC(=O)[C@H](CC(C)C)NC(=O)[C@H](CCSC)NC=O)NC(=O)[C@H]([C@H](O)[C@@H](O)c2ccc(O)cc2)NC(=O)[C@@H]2C[C@@H](O)CN2C(=O)[C@H]([C@@H](C)O)NC1=O [Compound 15] | – | – | – | – | – | 0.12 µg/mL | 0.12 µg/mL | 0.12 µg/mL | 0.12 µg/mL | 0.12 µg/mL | 9.6% | 47.3% | 13.0% | −6.3% | −7.0%
